A short description of series [1]: Stability of the compound in pH 4 solution at 10^-4 M after 24 hrs by HPLC analysis. It counts as physicochemical. Particulars: read-out: Stability.
Series [2] is described as follows: Stability of the compound in pH 5 solution at 10^-4 M after 24 hrs by HPLC analysis. It counts as physicochemical. Particulars: read-out: Stability.
Series [3] in a line: Stability of the compound in pH 6 solution at 10^-4 M after 24 hrs by HPLC analysis. Particulars: read-out: Stability. It counts as physicochemical.
The nature of series [4]: Stability of the compound in pH 7 solution at 10^-4 M after 1 hr by HPLC analysis. The following applies: read-out: Stability. In kind it is physicochemical.
Series [5] in a line: Stability of the compound in pH 3 solution at 10^-4 M after 24 hrs by HPLC analysis. It counts as physicochemical. Particulars: read-out: Stability.
Series [6] concerns Amaranthus caudatus. Nature of the series: Growth promoting activity in Amaranthus caudatus var. atropurpurea seeds by measuring betacyanin at 10^-4 mol/L after 48 hrs relative to control. It counts as functional.
A short description of series [7]: Antioxidant activity assessed as trolox equivalent of AAPH-induced radical scavenging activity at 1 uM pretreated for 15 mins followed by […] challenge measured every 3 mins over 90 mins by ORAC-FL assay. In kind it is functional.
A short description of series [8]: Stability of the compound in pH 6 solution at 10^-4 M after 1 hr by HPLC analysis. The following applies: read-out: Stability. In kind it is physicochemical.
Series [9] can be described thus: Stability of the compound in pH 3 solution at 10^-4 M after 1 hr by HPLC analysis. In kind it is physicochemical. Particulars: read-out: Stability.
For the next series, the system named is Nicotiana tabacum. In words: Growth promoting activity in tobacco callus assessed as callus weight at 10^-5 mol/L after 4 weeks relative to control. It counts as functional.
Series [10] is described as follows: Stability of the compound in pH 4 solution at 10^-4 M after 1 hr by HPLC analysis. In kind it is physicochemical. The following applies: read-out: Stability.
Series [11] in a line: Stability of the compound in pH 7 solution at 10^-4 M after 24 hrs by HPLC analysis. In kind it is physicochemical. The following applies: read-out: Stability.
Series [12] in a line: Stability of the compound in pH 5 solution at 10^-4 M after 1 hr by HPLC analysis. In kind it is physicochemical. The following applies: read-out: Stability.
A further series relates to Triticum aestivum. In words: Anti-senescent activity in leaf of Triticum aestivum cv. Hereward seedlings by measuring chlorophyll retention at 10^-4 mol/L after 4 days relative to control. In kind it is functional.
For series [13], the system named is HaCaT. In words: Cytoprotection against phototoxicity in human HaCaT cells assessed as increase in cell viability at 3.9 uM preincubated for 60 mins followed by 10 J/cm2 UVA irradiation and measured after 24 hrs by neutral red uptake assay. In kind it is functional, cell-based.
For series [14], the system named is HaCaT. Nature of the series: Cytotoxicity in human HaCaT cells assessed as reduction in cell viability at 50 uM after 24 hrs by resazurin dye-based fluorescence assay relative to control. For orientation: Resazurin is reduced to fluorescent resorufin, in cell work by metabolically active cells.
The nature of series [15]: Cytotoxicity in human NHDF cells assessed as cell viability at 31.3 uM after 24 hrs by neutral red uptake assay relative to control. The following applies: read-out: Activity. It counts as cell-based.
Series [16] can be described thus: Phototoxicity in human NHDF cells assessed as cell viability at 31.3 uM preincubated for 60 mins followed by 5 J/cm2 UVA irradiation and measured after 24 hrs by neutral red uptake assay relative to control. It counts as cell-based. The following applies: read-out: Activity.
A short description of series [17]: Cytotoxicity in human NHDF cells assessed as cell viability at 15.6 uM after 24 hrs by neutral red uptake assay relative to control. In kind it is cell-based. The following applies: read-out: Activity.
The nature of series [18]: Phototoxicity in human HaCaT cells assessed as cell viability at 15.6 uM preincubated for 60 mins followed by 7.5 J/cm2 UVA irradiation and measured after 24 hrs by neutral red uptake assay relative to control. It counts as cell-based. The following applies: read-out: Activity.
Series [19] in a line: Cytotoxicity in human HaCaT cells assessed as cell viability at 15.6 uM after 24 hrs by neutral red uptake assay relative to control. It counts as cell-based. Particulars: read-out: Activity.
The subject of a further series is BJ. Nature of the series: Cytotoxicity in human BJ cells assessed as reduction in cell viability at 50 uM after 24 hrs by resazurin dye-based fluorescence assay relative to control.
Series [20] can be described thus: Cytotoxicity in human NHDF cells assessed as cell viability at 7.8 uM after 24 hrs by neutral red uptake assay relative to control. It counts as cell-based. The following applies: read-out: Activity.
Series [21] in a line: Cytotoxicity in human NHDF cells assessed as cell viability at 62.5 uM after 24 hrs by neutral red uptake assay relative to control. In kind it is cell-based. Particulars: read-out: Activity.
Series [22] can be described thus: Phototoxicity in human NHDF cells assessed as cell viability at 3.9 uM preincubated for 60 mins followed by 5 J/cm2 UVA irradiation and measured after 24 hrs by neutral red uptake assay relative to control. In kind it is cell-based. Particulars: read-out: Activity.
A short description of series [23]: Cytotoxicity in human HaCaT cells assessed as cell viability at 7.8 uM after 24 hrs by neutral red uptake assay relative to control. The following applies: read-out: Activity. It counts as cell-based.
A short description of series [24]: Phototoxicity in human HaCaT cells assessed as cell viability at 3.9 uM preincubated for 60 mins followed by 7.5 J/cm2 UVA irradiation and measured after 24 hrs by neutral red uptake assay relative to control. It counts as cell-based. The following applies: read-out: Activity.
The nature of series [25]: Cytotoxicity in human HaCaT cells assessed as cell viability at 125 uM after 24 hrs by neutral red uptake assay relative to control. In kind it is cell-based. Particulars: read-out: Activity.
A short description of series [26]: Cytotoxicity in human HaCaT cells assessed as cell viability at 3.9 uM after 24 hrs by neutral red uptake assay relative to control. It counts as cell-based. The following applies: read-out: Activity.
Series [27] is described as follows: Cytotoxicity in human HaCaT cells assessed as cell viability at 31.3 uM after 24 hrs by neutral red uptake assay relative to control. The following applies: read-out: Activity. In kind it is cell-based.
Series [28] can be described thus: Cytotoxicity in human NHDF cells assessed as cell viability at 125 uM after 24 hrs by neutral red uptake assay relative to control. It counts as cell-based. Particulars: read-out: Activity.
A short description of series [29]: Cytotoxicity in human NHDF cells assessed as cell viability at 3.9 uM after 24 hrs by neutral red uptake assay relative to control. In kind it is cell-based. The following applies: read-out: Activity.
Series [30] in a line: Phototoxicity in human NHDF cells assessed as cell viability at 7.8 uM preincubated for 60 mins followed by 5 J/cm2 UVA irradiation and measured after 24 hrs by neutral red uptake assay relative to control. In kind it is cell-based. Particulars: read-out: Activity.
Series [31] can be described thus: Cytotoxicity in human HaCaT cells assessed as cell viability at 62.5 uM after 24 hrs by neutral red uptake assay relative to control. In kind it is cell-based. The following applies: read-out: Activity.
Series [32] can be described thus: Phototoxicity in human HaCaT cells assessed as cell viability at 62.5 uM preincubated for 60 mins followed by 7.5 J/cm2 UVA irradiation and measured after 24 hrs by neutral red uptake assay relative to control. The following applies: read-out: Activity. It counts as cell-based.
Series [33] relates to Caenorhabditis elegans. Nature of the series: Protection against juglone-induced oxidative stress in Caenorhabditis elegans BA17 (fem-1) at 100 uM preincubated for 3 days followed by juglone addition measured every hour for 12 ro 14 hrs by inverted microscopic analysis. In kind it is functional, organism-based.
Series [34] in a line: Phototoxicity in human NHDF cells assessed as cell viability at 125 uM preincubated for 60 mins followed by 5 J/cm2 UVA irradiation and measured after 24 hrs by neutral red uptake assay relative to control. The following applies: read-out: Activity. It counts as cell-based.
Series [35] has as its system Caenorhabditis elegans. In words: Protection against juglone-induced oxidative stress in wild type Caenorhabditis elegans N2 at 100 uM preincubated for 3 days followed by juglone addition and measured after 4 hrs by inverted microscopic analysis. In kind it is functional, organism-based.
Series [36] can be described thus: Phototoxicity in human NHDF cells assessed as cell viability at 62.5 uM preincubated for 60 mins followed by 5 J/cm2 UVA irradiation and measured after 24 hrs by neutral red uptake assay relative to control. The following applies: read-out: Activity. In kind it is cell-based.
A short description of series [37]: Phototoxicity in human HaCaT cells assessed as cell viability at 31.3 uM preincubated for 60 mins followed by 7.5 J/cm2 UVA irradiation and measured after 24 hrs by neutral red uptake assay relative to control. It counts as cell-based. Particulars: read-out: Activity.
A short description of series [38]: Phototoxicity in human HaCaT cells assessed as cell viability at 125 uM preincubated for 60 mins followed by 7.5 J/cm2 UVA irradiation and measured after 24 hrs by neutral red uptake assay relative to control. In kind it is cell-based. Particulars: read-out: Activity.
Series [39] can be described thus: Phototoxicity in human HaCaT cells assessed as cell viability at 7.8 uM preincubated for 60 mins followed by 7.5 J/cm2 UVA irradiation and measured after 24 hrs by neutral red uptake assay relative to control. The following applies: read-out: Activity. In kind it is cell-based.
Series [40] can be described thus: Phototoxicity in human NHDF cells assessed as cell viability at 15.6 uM preincubated for 60 mins followed by 5 J/cm2 UVA irradiation and measured after 24 hrs by neutral red uptake assay relative to control. It counts as cell-based. Particulars: read-out: Activity.
Series [41] concerns Amaranthus caudatus. Nature of the series: Growth promoting activity in Amaranthus caudatus var. atropurpurea seeds by measuring betacyanin at 10^-5 mol/L after 48 hrs relative to control. It counts as functional.

Calls of active or inactive are those of the source. No cut-off for these calls is given here.

With `c1nc(NCC2CCCO2)c2ncn(C3CCCO3)c2n1` (stereo not drawn), the remaining at 24 h, 100 µM in [1] turned out to be 44.3%; in series [2] it was 92.6%; in [3] it was 100%; in series [5] it was 0.4%; in series [11], 100%. The remaining at 1 h, 100 µM was found to be 100% in [4]; 100% in [8]; 94.3% in series [9]; 100% in [10]; 100% in series [12]. Further, the Activity was 38% in the series on Amaranthus caudatus [6], below 0.05 equiv in series [7], 100% in the series on Nicotiana tabacum and 116% in the series with Triticum aestivum.
Turning to `Clc1nc(NCc2ccco2)c2ncn(C3CCCO3)c2n1` (stereo not drawn), the outcome in the series on HaCaT [13], with Caenorhabditis elegans [33] and with Caenorhabditis elegans [35] was Active. For the same molecule, the remaining at 24 h, 100 µM in series [1] amounted to 51.7%; in series [2], 92.9%; in [3], 100%; in series [5], 0.9%. Also, the Activity in the series with HaCaT [14] was below 10%; with BJ, below 10%; in the series on Amaranthus caudatus [6] it was 88%; in [7] it was below 0.05 equiv; with Nicotiana tabacum, 112%; in the series on Triticum aestivum it was 75%. For the same molecule, the viability at 24 h, 31.3 µM in series [15] turned out to be 105%; in series [16], 103%; in series [27] it was 109%; in [37], 119%. The viability at 24 h, 15.6 µM worked out at 104% in series [17], 120% in series [18], 109% in [19] and 103% in series [40]. For the same molecule, the viability at 24 h, 7.8 µM in series [20] stood at 104%; in series [23], 107%; in series [30], 102%; in [39], 120%. Moreover, the viability at 24 h, 62.5 µM stood at 106% in [21], 110% in [31], 116% in series [32] and 103% in series [36]. The viability at 24 h, 3.9 µM in series [22] stood at 100%; in series [24] it was 116%; in series [26], 107%; in series [29] it was 100%. Also, the viability at 24 h, 125 µM in series [25] was found to be 105%; in [28], 101%; in [34], 97%; in series [38] it was 104%. The remaining at 1 h, 100 µM in series [8] was 100%; in series [9], 98.8%; in series [10], 100%; in series [12], 100%.
With `c1csc(CNc2[nH]cnc3ncnc2-3)c1`, the Activity is reported as 95% in the series with Amaranthus caudatus [41], 102% with Nicotiana tabacum and 60% with Triticum aestivum.

Values taken from ChEMBL document CHEMBL4229381, “New cytokinin derivatives possess UVA and UVB photoprotective effect on human skin cells and prevent oxidative stress” (Eur J Med Chem, 2018).
